Measured values published in ChEMBL document CHEMBL5126529, “Drug discovery of histone lysine demethylases (KDMs) inhibitors (progress from 2018 to present)” (Eur J Med Chem, 2022).
Blank lines part the entries; values can stand above or below the compound they belong to.

How the values were obtained:
[1] = target: Lysine-specific demethylase 5C (Homo sapiens, UniProt P41229); experiment: Inhibition of N-terminal FLAG/His-tagged full-length human KDM5C (2 to 1560 residues) expressed in baculovirus infected Sf9 insect cells using peptide substrate incubated for 2 hrs by Alpha Screen assay
Sequence of Lysine-specific demethylase 5C (P41229 whole entry, the tested form may be a part): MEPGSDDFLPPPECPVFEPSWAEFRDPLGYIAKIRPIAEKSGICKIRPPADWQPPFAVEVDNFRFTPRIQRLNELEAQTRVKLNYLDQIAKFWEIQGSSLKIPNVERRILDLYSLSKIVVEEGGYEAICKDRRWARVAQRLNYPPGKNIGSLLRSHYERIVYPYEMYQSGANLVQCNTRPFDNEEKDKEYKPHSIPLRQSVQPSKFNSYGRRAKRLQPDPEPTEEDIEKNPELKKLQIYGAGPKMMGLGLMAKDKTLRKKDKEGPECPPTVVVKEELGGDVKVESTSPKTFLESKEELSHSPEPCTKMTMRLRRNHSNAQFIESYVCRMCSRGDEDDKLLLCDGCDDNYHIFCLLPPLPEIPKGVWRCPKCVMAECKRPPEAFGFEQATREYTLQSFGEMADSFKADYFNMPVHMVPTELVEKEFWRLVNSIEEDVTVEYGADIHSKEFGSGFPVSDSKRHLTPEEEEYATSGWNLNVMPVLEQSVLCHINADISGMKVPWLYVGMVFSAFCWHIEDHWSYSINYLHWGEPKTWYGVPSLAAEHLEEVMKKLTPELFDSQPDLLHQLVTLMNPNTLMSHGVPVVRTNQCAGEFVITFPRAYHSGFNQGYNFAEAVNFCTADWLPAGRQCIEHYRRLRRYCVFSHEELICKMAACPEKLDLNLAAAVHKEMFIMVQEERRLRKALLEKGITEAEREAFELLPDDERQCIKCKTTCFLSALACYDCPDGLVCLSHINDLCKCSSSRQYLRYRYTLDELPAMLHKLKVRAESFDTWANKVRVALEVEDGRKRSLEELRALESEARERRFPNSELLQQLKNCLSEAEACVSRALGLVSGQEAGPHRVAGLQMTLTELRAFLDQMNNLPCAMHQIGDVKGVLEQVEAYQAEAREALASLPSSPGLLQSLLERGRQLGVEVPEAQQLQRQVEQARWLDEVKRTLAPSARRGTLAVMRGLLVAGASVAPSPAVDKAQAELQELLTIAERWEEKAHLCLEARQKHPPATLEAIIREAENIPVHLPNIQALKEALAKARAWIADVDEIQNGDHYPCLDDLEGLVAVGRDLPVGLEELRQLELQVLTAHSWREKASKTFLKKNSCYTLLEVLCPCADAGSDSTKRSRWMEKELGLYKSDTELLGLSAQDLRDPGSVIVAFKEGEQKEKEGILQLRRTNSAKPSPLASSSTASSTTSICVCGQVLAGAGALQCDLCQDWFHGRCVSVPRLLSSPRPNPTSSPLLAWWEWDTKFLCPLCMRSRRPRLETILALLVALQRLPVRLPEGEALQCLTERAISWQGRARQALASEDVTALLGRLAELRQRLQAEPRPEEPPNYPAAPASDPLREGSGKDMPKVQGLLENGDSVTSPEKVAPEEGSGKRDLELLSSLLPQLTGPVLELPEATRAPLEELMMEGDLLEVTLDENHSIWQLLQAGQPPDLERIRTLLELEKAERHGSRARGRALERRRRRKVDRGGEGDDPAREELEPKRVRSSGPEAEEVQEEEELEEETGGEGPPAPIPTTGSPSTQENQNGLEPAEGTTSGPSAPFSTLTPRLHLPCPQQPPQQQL

[2] = target: T1, Lysine-specific demethylase 5A (Homo sapiens, UniProt P29375); experiment: Inhibition of full-length human KDM5A expressed in recombinant baculovirus expression system using […] peptide as substrate incubated for 30 to 45 mins by TR-FRET assay; set-up: species or system Sf9
T1 sequence (P29375 whole entry): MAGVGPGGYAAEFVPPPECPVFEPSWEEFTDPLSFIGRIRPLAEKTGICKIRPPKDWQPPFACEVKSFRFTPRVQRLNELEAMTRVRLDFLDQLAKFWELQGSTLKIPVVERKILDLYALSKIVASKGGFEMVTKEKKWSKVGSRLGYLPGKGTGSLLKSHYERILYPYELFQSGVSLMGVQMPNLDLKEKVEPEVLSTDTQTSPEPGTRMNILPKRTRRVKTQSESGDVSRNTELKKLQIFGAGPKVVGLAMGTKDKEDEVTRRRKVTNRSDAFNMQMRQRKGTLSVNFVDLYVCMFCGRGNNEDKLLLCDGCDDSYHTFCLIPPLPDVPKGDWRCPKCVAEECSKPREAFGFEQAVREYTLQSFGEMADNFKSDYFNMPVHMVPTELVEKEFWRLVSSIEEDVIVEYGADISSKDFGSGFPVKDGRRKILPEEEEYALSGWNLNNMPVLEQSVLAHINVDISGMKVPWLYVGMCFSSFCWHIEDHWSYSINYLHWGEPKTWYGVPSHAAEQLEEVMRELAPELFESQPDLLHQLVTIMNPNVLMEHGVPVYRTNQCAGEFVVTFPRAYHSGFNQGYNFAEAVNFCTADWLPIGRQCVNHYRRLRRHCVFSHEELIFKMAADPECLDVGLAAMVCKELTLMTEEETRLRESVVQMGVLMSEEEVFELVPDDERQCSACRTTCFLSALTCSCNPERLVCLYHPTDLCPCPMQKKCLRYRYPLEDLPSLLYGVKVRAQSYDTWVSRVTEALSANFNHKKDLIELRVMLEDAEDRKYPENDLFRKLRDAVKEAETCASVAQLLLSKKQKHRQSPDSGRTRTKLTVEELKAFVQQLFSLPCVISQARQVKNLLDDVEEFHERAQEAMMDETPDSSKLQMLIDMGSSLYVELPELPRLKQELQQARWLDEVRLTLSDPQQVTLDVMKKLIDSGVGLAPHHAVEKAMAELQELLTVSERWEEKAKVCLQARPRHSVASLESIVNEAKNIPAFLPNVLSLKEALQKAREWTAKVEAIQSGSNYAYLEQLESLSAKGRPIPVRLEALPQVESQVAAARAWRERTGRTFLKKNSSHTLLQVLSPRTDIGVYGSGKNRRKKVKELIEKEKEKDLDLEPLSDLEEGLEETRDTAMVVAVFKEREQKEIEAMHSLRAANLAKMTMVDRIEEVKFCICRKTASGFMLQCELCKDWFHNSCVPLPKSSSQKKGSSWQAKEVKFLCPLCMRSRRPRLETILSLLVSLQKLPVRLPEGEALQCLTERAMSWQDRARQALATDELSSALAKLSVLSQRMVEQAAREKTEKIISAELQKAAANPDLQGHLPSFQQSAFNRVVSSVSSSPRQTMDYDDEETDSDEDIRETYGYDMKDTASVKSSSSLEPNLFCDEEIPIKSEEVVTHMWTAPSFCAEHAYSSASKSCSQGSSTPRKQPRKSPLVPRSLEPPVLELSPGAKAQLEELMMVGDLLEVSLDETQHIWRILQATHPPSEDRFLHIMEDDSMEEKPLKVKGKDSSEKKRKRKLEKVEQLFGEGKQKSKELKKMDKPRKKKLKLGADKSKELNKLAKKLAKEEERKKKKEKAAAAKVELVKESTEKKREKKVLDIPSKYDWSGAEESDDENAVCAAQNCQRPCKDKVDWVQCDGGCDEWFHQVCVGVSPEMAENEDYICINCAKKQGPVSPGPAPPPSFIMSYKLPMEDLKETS

[3] = target: T2, Lysine-specific demethylase 4A (Homo sapiens, UniProt O75164); experiment: Inhibition of KDM4A (unknown origin) incubated for 30 mins by fluorescence based assay
T2 sequence (O75164 whole entry): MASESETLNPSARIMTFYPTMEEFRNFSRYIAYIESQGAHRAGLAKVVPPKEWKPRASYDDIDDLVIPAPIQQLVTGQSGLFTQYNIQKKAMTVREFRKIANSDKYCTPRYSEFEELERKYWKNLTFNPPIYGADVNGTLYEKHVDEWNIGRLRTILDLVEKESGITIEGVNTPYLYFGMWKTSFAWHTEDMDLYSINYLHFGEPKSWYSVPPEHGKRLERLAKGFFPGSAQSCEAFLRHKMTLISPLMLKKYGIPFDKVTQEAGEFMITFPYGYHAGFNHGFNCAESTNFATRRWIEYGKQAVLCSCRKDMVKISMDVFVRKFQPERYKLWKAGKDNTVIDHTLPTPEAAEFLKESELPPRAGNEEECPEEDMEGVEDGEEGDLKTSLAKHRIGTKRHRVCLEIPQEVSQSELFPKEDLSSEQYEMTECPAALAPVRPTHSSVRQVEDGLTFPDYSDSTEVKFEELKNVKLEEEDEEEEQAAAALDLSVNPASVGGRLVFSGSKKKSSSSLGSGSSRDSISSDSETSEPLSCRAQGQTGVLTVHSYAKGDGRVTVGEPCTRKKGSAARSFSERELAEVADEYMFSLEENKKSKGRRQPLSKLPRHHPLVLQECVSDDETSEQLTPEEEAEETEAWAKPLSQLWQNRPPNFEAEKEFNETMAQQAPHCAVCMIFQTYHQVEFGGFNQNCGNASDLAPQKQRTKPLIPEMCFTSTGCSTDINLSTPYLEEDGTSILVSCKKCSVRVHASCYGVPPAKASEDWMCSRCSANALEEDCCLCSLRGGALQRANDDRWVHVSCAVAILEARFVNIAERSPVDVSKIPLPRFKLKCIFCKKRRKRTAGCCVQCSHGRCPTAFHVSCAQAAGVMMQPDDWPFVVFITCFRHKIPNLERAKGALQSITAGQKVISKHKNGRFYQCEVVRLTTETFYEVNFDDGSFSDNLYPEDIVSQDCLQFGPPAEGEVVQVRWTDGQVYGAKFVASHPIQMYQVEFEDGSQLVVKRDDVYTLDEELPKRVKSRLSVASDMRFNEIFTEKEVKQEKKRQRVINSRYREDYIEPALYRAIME

[4] = target: T1, Lysine-specific demethylase 5A; experiment: Inhibition of full-length KDM5A ([…])(unknown origin) using ARTK(me3)-QTARKSTGGKAPRKQLA-GGK(biotin) as substrate preincubated for 10 mins followed by substrate addition measured after 45 mins by LANCE Ultra assay
[5] = target: Lysine-specific demethylase 6B (Homo sapiens, UniProt O15054); experiment: Inhibition of KDM6B (1043 to end residues) (unknown origin) using ATKAARK(me3)-SAPATGGVKKPHRYRPG-GK(biotin) as substrate preincubated for 10 mins followed by substrate addition measured after 45 mins by LANCE Ultra assay
[6] = target: T2, Lysine-specific demethylase 4A; experiment: Inhibition of KDM4A (1 to 359 residues) (unknown origin) using ARTKQTARK(me3)-STGGKAPRKQLA-GGK(biotin) peptide as substrate preincubated for 10 mins followed by substrate addition measured after 45 mins by LANCE Ultra assay
[7] = target: Lysine-specific demethylase 2B (Homo sapiens, UniProt Q8NHM5); experiment: Inhibition of KDM2B (unknown origin)
[8] = target: Lysine-specific demethylase 2A (Homo sapiens, UniProt Q9Y2K7); experiment: Inhibition of KDM2A (unknown origin)
Sequence of Lysine-specific demethylase 2A (Q9Y2K7 whole entry): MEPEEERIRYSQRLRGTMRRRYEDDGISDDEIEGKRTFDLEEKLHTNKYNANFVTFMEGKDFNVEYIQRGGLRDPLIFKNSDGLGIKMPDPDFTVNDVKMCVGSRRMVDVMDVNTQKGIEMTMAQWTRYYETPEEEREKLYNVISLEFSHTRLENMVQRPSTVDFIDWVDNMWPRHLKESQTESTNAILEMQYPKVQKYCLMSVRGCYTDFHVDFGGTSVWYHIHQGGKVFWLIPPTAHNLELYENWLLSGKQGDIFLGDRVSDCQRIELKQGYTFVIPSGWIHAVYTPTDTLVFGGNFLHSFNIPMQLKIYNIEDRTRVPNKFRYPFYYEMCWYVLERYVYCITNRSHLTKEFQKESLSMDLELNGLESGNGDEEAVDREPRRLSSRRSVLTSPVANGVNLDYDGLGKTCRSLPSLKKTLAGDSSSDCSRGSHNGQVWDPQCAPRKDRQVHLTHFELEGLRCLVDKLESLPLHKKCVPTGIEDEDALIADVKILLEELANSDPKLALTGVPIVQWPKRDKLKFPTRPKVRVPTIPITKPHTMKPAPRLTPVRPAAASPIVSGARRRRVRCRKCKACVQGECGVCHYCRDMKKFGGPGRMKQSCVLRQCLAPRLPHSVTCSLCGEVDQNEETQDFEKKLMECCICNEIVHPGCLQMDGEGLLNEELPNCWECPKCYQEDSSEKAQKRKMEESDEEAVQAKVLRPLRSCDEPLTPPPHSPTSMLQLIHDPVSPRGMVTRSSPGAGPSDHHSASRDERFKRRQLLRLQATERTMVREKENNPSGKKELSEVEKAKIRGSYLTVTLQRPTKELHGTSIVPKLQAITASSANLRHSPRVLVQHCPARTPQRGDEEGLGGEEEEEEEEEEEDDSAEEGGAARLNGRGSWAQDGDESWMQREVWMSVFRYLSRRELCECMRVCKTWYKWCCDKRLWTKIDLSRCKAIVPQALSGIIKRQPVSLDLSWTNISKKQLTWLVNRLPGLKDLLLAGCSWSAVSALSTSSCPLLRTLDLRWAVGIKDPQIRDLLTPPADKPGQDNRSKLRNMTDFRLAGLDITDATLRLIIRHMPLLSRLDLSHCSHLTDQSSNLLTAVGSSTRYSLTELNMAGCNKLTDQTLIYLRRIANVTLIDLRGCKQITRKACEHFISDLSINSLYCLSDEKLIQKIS

IC50 [1]: 0.0088 µM
SMILES: CCCCCCN(C)CCn1cc(-c2cc(C(=O)O)ccn2)nn1

SMILES: Cc1cc(O[C@H](C)C(=O)NCC(=O)NCC(=O)O)c2c3c(c(=O)oc2c1)CCC3
IC50 [2]: 0.0238 µM | IC50 [3]: > 100 µM

IC50 [5]: 3.95 µM | IC50 [6]: 4.76 µM
SMILES: O=C(O)c1ccc(-n2nc(-c3ccccc3O)nc2-c2ccccc2O)cc1 [DEFERASIROX]
IC50 [4]: 5 µM

SMILES: Cc1c(O)c(=O)ccn1C [DEFERIPRONE]
IC50 [7]: 8.1 µM | IC50 [8]: 6.8 µM
